Measurements: patent US10526345B2, “Compounds as GPR119 agonists” (Mankind Pharma Ltd., priority 2016, dated 2020)

The molecules below were run against T1, hGPR119 (Homo sapiens, UniProt Q8TDV5) (assay: In vitro cyclic AMP assay (Cisbio dynamic 2 HTRF kit) in CHO-hGPR119 cells). Details: 1 h, cAMP, compound at 1 μM, 60 min, read-out: Induction (% induction at 1 μM).
T1 construct: expressed in transfected cells; host or cells: CHO
T1 sequence (Q8TDV5 1-335): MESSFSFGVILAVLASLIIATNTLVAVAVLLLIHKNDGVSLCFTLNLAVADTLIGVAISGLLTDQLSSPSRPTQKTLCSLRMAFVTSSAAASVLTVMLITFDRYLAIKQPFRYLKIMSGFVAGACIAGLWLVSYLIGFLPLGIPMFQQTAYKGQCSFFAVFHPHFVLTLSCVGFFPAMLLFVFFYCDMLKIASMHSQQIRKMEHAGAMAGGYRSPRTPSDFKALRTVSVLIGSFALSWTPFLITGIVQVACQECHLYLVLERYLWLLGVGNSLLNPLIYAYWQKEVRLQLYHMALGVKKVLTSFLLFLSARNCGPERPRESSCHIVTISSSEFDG
Assay type: cell-based

Structure (SMILES)	activation at 1 µM [%]
CC(C)c1nnc(N2CCC(C(C)Oc3nc4ccc(-c5ccc(S(C)(=O)=O)cc5)nc4s3)CC2)o1 (stereo not drawn) [Compound 1097, 2-isopropyl-5-(4-(1-((5-(4-(methylsulfonyl)phenyl)thiazolo[5,4-b]pyridin-2-yl)oxy)ethyl)piperidin-1-yl)-1,3,4-oxadiazole]	34
CC(C)c1noc(N2CCC(C(C)Oc3nc4ccc(-c5cc[n+]([O-])cc5)nc4s3)CC2)n1 (stereo not drawn) [Compound 1098, 4-(2-(1-(1-(3-isopropyl-1,2,4-oxadiazol-5-yl)piperidin-4-yl)ethoxy)thiazolo[5,4-b]pyridin-5-yl)pyridine 1-oxide]	48
CC(C)c1noc(N2CCC(C(C)Oc3nc4ccc(-c5ccc(S(C)(=O)=O)c(F)c5)nc4s3)CC2)n1 (stereo not drawn) [Compound 1100, 5-(4-(1-((5-(3-fluoro-4-(methylsulfonyl)phenyl)thiazolo[5,4-b]pyridin-2-yl)oxy)ethyl)piperidin-1-yl)-3-isopropyl-1,2,4-oxadiazole]	65
CC(C)c1noc(N2CCC(C(Oc3nc4ccc(-c5ccc(S(C)(=O)=O)nc5)nc4s3)C(F)(F)F)CC2)n1 (stereo not drawn) [Compound 1102, 3-isopropyl-5-(4-(2,2,2-trifluoro-1-((5-(6-(methylsulfonyl)pyridin-3-yl)thiazolo[5,4-b]pyridin-2-yl)oxy)ethyl)piperidin-1-yl)-1,2,4-oxadiazole]	72
CC(C)c1noc(N2CCC(C(Oc3nc4ccc(-c5ccnc(F)c5)nc4s3)C(F)(F)F)CC2)n1 (stereo not drawn) [Compound 1103, 3-isopropyl-5-(4-(2,2,2-trifluoro-1-((5-(2-fluoropyridin-4-yl)thiazolo[5,4-b]pyridin-2-yl)oxy)ethyl)piperidin-1-yl)-1,2,4-oxadiazole]	63
CC(C)c1noc(C2CCC(C(C)Oc3nc4ccc(-c5ccc(S(C)(=O)=O)cc5)nc4s3)CC2)n1 (stereo not drawn) [Compound 1105, 3-isopropyl-5-(4-(1-((5-(4-(methylsulfonyl)phenyl)thiazolo[5,4-b]pyridin-2-yl)oxy)ethyl)cyclohexyl)-1,2,4-oxadiazole]	13
CC(C)c1nsc(N2CCC(C(C)Oc3nc4ccc(-c5ccc(S(C)(=O)=O)cc5)nc4s3)CC2)n1 (stereo not drawn) [Compound 1107, 2-(1-(1-(3-isopropyl-1,2,4-thiadiazol-5-yl)piperidin-4-yl)ethoxy)-5-(4-(methylsulfonyl)phenyl)thiazolo[5,4-b]pyridine]	12
CC(C)c1noc(N2CCC(C(C)Oc3nc4ncc(-c5ccc(S(C)(=O)=O)cc5)nc4s3)CC2)n1 (stereo not drawn) [Compound 1108, 3-isopropyl-5-(4-(1-((6-(4-(methylsulfonyl)phenyl)thiazolo[4,5-b]pyrazin-2-yl)oxy)ethyl)piperidin-1-yl)-1,2,4-oxadiazole]	65
CC(Oc1nc2ccc(-c3ccc(S(C)(=O)=O)cc3)nc2s1)C1CCN(S(=O)(=O)C2CC2)CC1 (stereo not drawn) [Compound 1109, 2-(1-(1-(cyclopropylsulfonyl)piperidin-4-yl)ethoxy)-5-(4-(methylsulfonyl)phenyl)thiazolo[5,4-b]pyridine]	0
CCCc1cnc(N2CCC(C(C)Oc3nc4ncc(-c5ccc(S(C)(=O)=O)cc5)nc4s3)CC2)nc1 (stereo not drawn) [Compound 1110, 6-(4-(methylsulfonyl)phenyl)-2-(1-(1-(5-propylpyrimidin-2-yl)piperidin-4-yl)ethoxy)thiazolo[4,5-b]pyrazine]	78
CC(C)c1noc(N2CCC(C(C)Oc3nc4ccc(-c5ccc(S(C)(=O)=O)cc5F)nc4s3)CC2)n1 (stereo not drawn) [Compound 1111, 5-(4-(1-((5-(2-fluoro-4-(methylsulfonyl)phenyl)thiazolo[5,4-b]pyridin-2-yl)oxy)ethyl)piperidin-1-yl)-3-isopropyl-1,2,4-oxadiazole]	24
CC(C)c1cnc(N2CCC(C(C)Oc3nc4ccc(-c5ccc(S(C)(=O)=O)cc5)nc4s3)CC2)nc1 (stereo not drawn) [Compound 1113, 2-(1-(1-(5-isopropylpyrimidin-2-yl)piperidin-4-yl)ethoxy)-5-(4-(methylsulfonyl)phenyl)thiazolo[5,4-b]pyridine]	57
CC(C)c1noc(N2CCC([C@H](C)Oc3nc4ncc(-c5ccc(S(C)(=O)=O)nc5)nc4s3)CC2)n1 [Compound 1114, (S)-3-isopropyl-5-(4-(1-((6-(6-(methyslulfonyl)pyridin-3-yl)thiazolo[4,5-b]pyrazin-2-yl)oxy)ethyl)piperidin-1-yl)-1,2,4-oxadiazole]	75

Further lines, results first:

activation at 1 µM [%]	Structure (SMILES)
12	CCCS(=O)(=O)N1CCC(C(C)Oc2nc3ccc(-c4ccc(S(C)(=O)=O)cc4)nc3s2)CC1 (stereo not drawn) [Compound 1115, 5-(4-(methylsulfonyl)phenyl)-2-(1-(1-(propylsulfonyl)piperidin-4-yl)ethoxy)thiazolo[5,4-b]pyridine]
61	CC(C)c1noc(N2CCC(C(C)Oc3nc4ccc(-c5cnc(Cl)nc5)nc4s3)CC2)n1 (stereo not drawn) [Compound 1116, 5-(4-(1-((5-(2-chloropyrimidin-5-yl)thiazolo[5,4-b]pyridin-2-yl)oxy)ethyl)piperidin-1-yl)-3-isopropyl-1,2,4-oxadiazole]
2	CC(Oc1nc2ccc(-c3ccc(S(C)(=O)=O)cc3)nc2s1)C1CCN(C(=O)OC2(C)CC2)CC1 (stereo not drawn) [Compound 1117, 1-methylcyclopropyl 4-(1-((5-(4-(methylsulfonyl)phenyl)thiazolo[5,4-b]pyridin-2-yl)oxy)ethyl)piperidine-1-carboxylate]
47	C=C(C)c1cnc(N2CCC(C(C)Oc3nc4ccc(-c5ccc(S(C)(=O)=O)cc5)nc4s3)CC2)nc1 (stereo not drawn) [Compound 1118, 5-(4-(methylsulfonyl)phenyl)-2-(1-(1-(5-(prop-1-en-2-yl)pyrimidin-2-yl)piperidin-4-yl)ethoxy)thiazolo[5,4-b]pyridine]
30	CC(C)c1noc(N2CCC(C(C)Oc3nc4ccc(-c5cncs5)nc4s3)CC2)n1 (stereo not drawn) [Compound 1121, 3-isopropyl-5-(4-(1-((5-(thiazol-5-yl)thiazolo[5,4-b]pyridin-2-yl)oxy)ethyl)piperidin-1-yl)-1,2,4-oxadiazole]
30	CC(C)c1noc(N2CCC(C(C)Oc3nc4ccc(-c5cnoc5)nc4s3)CC2)n1 (stereo not drawn) [Compound 1122, 3-isopropyl-5-(4-(1-((5-(isoxazol-4-yl)thiazolo[5,4-b]pyridin-2-yl)oxy)ethyl)piperidin-1-yl)-1,2,4-oxadiazole]
50	Cc1cc(-c2ccc3nc(OC(C)C4CCN(c5nc(C(C)C)no5)CC4)sc3n2)ccn1 (stereo not drawn) [Compound 1123, 3-isopropyl-5-(4-(1-((5-(2-methylpyridin-4-yl)thiazolo[5,4-b]pyridin-2-yl)oxy)ethyl)piperidin-1-yl)-1,2,4-oxadiazole]
30	CC(C)c1noc(N2CCC(C(C)Oc3nc4ccc(-c5cnsc5)nc4s3)CC2)n1 (stereo not drawn) [Compound 1124, 2-(1-(1-(3-isopropyl-1,2,4-oxadiazol-5-yl)piperidin-4-yl)ethoxy)-5-(isothiazol-4-yl)thiazolo[5,4-b]pyridine]
38	Cc1nscc1-c1ccc2nc(OC(C)C3CCN(c4nc(C(C)C)no4)CC3)sc2n1 (stereo not drawn) [Compound 1125, 3-isopropyl-5-(4-(1-((5-(3-methylisothiazol-4-yl)thiazolo[5,4-b]pyridin-2-yl)oxy)ethyl)piperidin-1-yl)-1,2,4-oxadiazole]
42	CC(C)c1noc(N2CCC(C(C)Oc3nc4ccc(-c5cc[nH]c(=O)c5)nc4s3)CC2)n1 (stereo not drawn) [Compound 1126, 4-(2-(1-(1-(3-isopropyl-1,2,4-oxadiazol-5-yl)piperidin-4-yl)ethoxy)thiazolo[5,4-b]pyridin-5-yl)pyridin-2(1H)-one]
50	CC(C)c1noc(N2CCC(C(C)Oc3nc4ccc(-c5ccn(C)c(=O)c5)nc4s3)CC2)n1 (stereo not drawn) [Compound 1127, 4-(2-(1-(1-(3-isopropyl-1,2,4-oxadiazol-5-yl)piperidin-4-yl)ethoxy)thiazolo[5,4-b]pyridin-5-yl)-1-methylpyridin-2(1H)-one]
10	CC(C)c1noc(N2CC[C@@H](COc3nc4ccc(-c5ccc(S(C)(=O)=O)cc5)nc4s3)[C@@H](F)C2)n1 [Compound 1128, 5-((3R,4S)-3-fluoro-4-(((5-(4-(methylsulfonyl)phenyl)thiazolo[5,4-b]pyridin-2-yl)oxy)methyl)piperidin-1-yl)-3-isopropyl-1,2,4-oxadiazole]
5	CC(C)c1noc(N2CC[C@@H](COc3nc4ccc(-c5ccc(S(C)(=O)=O)cc5)nc4s3)[C@H](F)C2)n1 [Compound 1129, 5-((3S,4S)-3-fluoro-4-(((5-(4-(methylsulfonyl)phenyl)thiazolo[5,4-b]pyridin-2-yl)oxy)methyl)piperidin-1-yl)-3-isopropyl-1,2,4-oxadiazole]
5	CC(C)c1noc(N2CCC(OC(C)c3nc4ccc(-c5ccc(S(C)(=O)=O)cc5)nc4s3)CC2)n1 (stereo not drawn) [Compound 1130, 3-isopropyl-5-(4-(1-(5-(4-(methylsulfonyl)phenyl)thiazolo[5,4-b]pyridin-2-yl)ethoxy)piperidin-1-yl)-1,2,4-oxadiazole]
40	CC(Oc1nc2ccc(-c3ccc(S(C)(=O)=O)cc3)nc2s1)C1CCN(c2nc(C(F)(F)F)no2)CC1 (stereo not drawn) [Compound 1131, 5-(4-(1-((5-(4-(methylsulfonyl)phenyl)thiazolo[5,4-b]pyridin-2-yl)oxy)ethyl)piperidin-1-yl)-3-(trifluoromethyl)-1,2,4-oxadiazole]
38	CC(C)c1noc(N2CCC(C(C)Oc3nc4ccc(-c5ccnc(Cl)c5)nc4s3)CC2)n1 (stereo not drawn) [Compound 1132, 2-(1-(1-(3-isopropyl-1,2,4-oxadiazol-5-yl)piperidin-4-yl)ethoxy)-5-(2-chloropyridin-4-yl)thiazolo[5,4-b]pyridine]

Same assay, conditions: cAMP

EC50 [nM]	Structure (SMILES)
50 to 100	CC(C)c1noc(N2CCC([C@H](C)Oc3nc4ncc(-c5ccc(S(C)(=O)=O)nc5)nc4s3)CC2)n1 [Compound 1114, (S)-3-isopropyl-5-(4-(1-((6-(6-(methyslulfonyl)pyridin-3-yl)thiazolo[4,5-b]pyrazin-2-yl)oxy)ethyl)piperidin-1-yl)-1,2,4-oxadiazole]
